“Also recorded” adds a separate entry of the source.
Legend:
[1] = tested on: tumor infiltrating lymphocytes (TILs)
Procedure: The effect of IL-21 and Panobinostat in the clinical-relevant TIL expansion was assessed.
To examine the possible de-differentiating effect of an HDAC inhibitor/IL-21 combination, TILs were untreated or pretreated with SAHA for 24 hours, then subjected to regular REP (irradiated PBMC and LCL cells, anti-CD3 and IL-2), or REP with SAHA/IL-21.
The TILs were cultured from patient melanoma tumors. […] For studies with SAHA, SAHA was used at 1-5 μM.
TILs were cultured in 50% AIM-V, 50% TIL complete medium which contains RPMI1640, 10% human AB serum, 10 mM HEPES, and 2-Mercaptoethanol. […] IL-21 (30 ng/ml) or HDACi SAHA (1-5 μM) or Panobinostat (1-3 nM) was added on day 0, 4 and 7 if included in the expansion. After 14 days, expanded cells were subjected to further analyses.

[2] = tested on: histone H3 acetylation (AcH3); assay: Western blot of H3 acetylation (AcH3) level; type: cell-based, human
Source text: (§1) Western Blot analysis: Equal number of cells was lysed in 2×SDS loading buffer and loaded for immunoblot analysis with different antibodies (Cell Signaling). Anti-β-actin-HRP was from Santa Cruz Biotech. β-actin was used as the loading control for all immunoblot experiments. The results were quantified using ImageJ and normalized to the density of actin in the corresponding samples.

CD132 (γC) = assay: CD132 surface level on expanded CTLs by flow cytometry; type: cell-based, human; conditions: CD8+ gate
Source text: (§2) The expanded TILs/CTLs were also stained with antibodies against CD8 and CD132 and analyzed using the CD8^+ gate. […] In addition, the expanded CTLs were labeled with carboxyfluorescein succinimidyl ester (CFSE) and cultured with IL-2 or IL-15 for 2 days to check cell division. […] (FIG. 4B).
(§3) Flow Cytometry: Cells were stained with antibodies against CD8, CD28, CD62L or CD132. All FACS data were acquired via an LSR II flow cytometer and analyzed via FlowJo software (Tree Star, Inc.).

STAT5 = assay: Western blot of pSTAT5; type: cell-based, human; conditions: naïve CD8+ T cells, anti-CD3/CD28 beads, 30 minutes after activation
Procedure: (§4) Polyclonal stimulation of CD8^+ T cells: Naïve CD8^+ T cells (CD8^+CD45RA^+CCR7^+) were flow cytometry-sorted or were isolated using EasySep™ Human Naïve CD8^+ T Cell Enrichment Kit (StemCell). In some experiments, total CD8^+ T cells were negatively selected using EasySep™ Human CD8^+ T Cell Enrichment Kit (StemCell). The purity of the naïve or total CD8^+ T cells was greater than 95% as determined by flow cytometry. CD8^+ T cells were cultured in RPMI 1640 with 10% fetal bovine serum and penicillin/streptomycin. CD8^+ T cells were activated using Dynabeads® Human T-Activator CD3/CD28 for T-Cell Expansion and Activation (Life Technologies) at a bead:cell ratio of 1:1 or together with 30 ng/mL human IL-21 (Peprotech). At the indicated time points, T cells were harvested and beads were removed using a magnet before downstream analysis.
as §1

[3] = tested on: tumor antigen-specific CTL lines; assay: REP and mini-REP expansion fold of CTLs; type: cell-based, human; conditions: 2 weeks
Procedure: The TILs were cultured from patient melanoma tumors. […] After 14 days, cells were used for further analyses. For studies with SAHA (FIG. 2), SAHA was used at […].
Mini-REP was started scaling down from T25 flasks to 24-well plates accordingly. IL-21 and Panobinostat dose remained unchanged.
To examine the clinical applicability of Panobinostat (Pano) in the setting of antigen-specific ACT, MART1 (M27)-specific effector/effector memory cells generated via the ETC approach were used and expanded in vitro by REP, as previously described (Yee, 2014). Cells were expanded with four different protocols (regular, adding IL-21 alone, adding Pano alone, or IL-21+Pano). […] It was posited that Panobinostat, like SAHA, enabled STAT3 and other transcription factors/cofactors to access binding sites and induce CD28 and CD62L expression.
The TILs were cultured from patient melanoma tumors. […] After 14 days, cells were used for further analyses.

[4] = tested on: tumor antigen-specific CTL cells; assay: Intracellular staining of IFN-γ and granzyme B; type: cell-based, human; conditions: restimulated with tumor cells
Procedure: Intracellular Staining: The cells were restimulated with tumor cells for 16 hours and stained with antibody against CD8, followed by fixation and staining with antibodies against IFN-γ and granzyme B in permeabilization buffer. The cells were washed and resuspended in FACS buffer before analysis.

[5] = tested on: MART1 (M27)-specific effector CD8+ T cells; assay: CD28 level on M27-specific effector CD8+ T cells by flow cytometry; type: cell-based, human; conditions: activation with M27-pulsed mature dendritic cells, 4 days
Procedure: The present studies were performed to develop a method to reprogram or de-differentiate effector T cells that express CD45RO to central memory T cells that express CD62L and CD28 (FIG. 8). The effect of IL-21 and histone deacetylase inhibitor (HDACi) treatment on central memory markers CD28 and CD62L was evaluated. MART1 (M27)-specific effector CD8^+ T cells were untreated or pretreated with SAHA for 24 hours, followed by activation with M27-pulsed mature dendritic cells in the presence or absence of SAHA/IL-21 for 4 days.
as §3
To assess the effect of SAHA/IL-21 on CD28 expression in the context of a more physiologic, antigen-specific (in contrast to non-specific polyclonal) stimulation, this effect was evaluated on MART1 (M27)-specific effector/effector memory cells generated using peptide-pulsed autologous dendritic cells. MART1 (M27)-specific effector CD8^+ T cells (CD45RO^+, CD28-neg, CD62L-neg) were generated following iterative cycles of in vitro stimulation, tetramer-guided sorting of M27-specific CTL and expansion to uniformity (>95% MART-1-specific effector CTL). First, the effect of SAHA was evaluated on pSTAT3 binding to the CD28 promoter region. […]

target tumor cells = assay: Chromium release assay (CRA); type: cell-based; conditions: effector:tumor 20:1, 4 hours, compared with regular expansion
Procedure: (§5) Chromium Release Assay (CRA): Tumor cells were labeled with Cr51 before being incubated with antigen-specific CTLs at effector:tumor of 20:1 for 4 hours. The Cr51 amount in the supernatants was measured and the killing efficiency was calculated as % killing=100%×(sample average−average of negative control)/(average of positive control average of negative control).
as §5, with “control−average” for “control average”

STAT3 = assay: Western blot of IL-21-induced pSTAT3; type: cell-based, human
Procedure: as §4, §1

expanded CTLs = assay: CFSE proliferation of expanded CTLs with IL-2 or IL-15; type: cell-based, human; conditions: 2 days
Procedure: as §2
Central memory function associated with the IL-21/Pano-induced CD28^+CD62L^+ population was evaluated by the ability of these central memory-like T cells to undergo homeostatic proliferation in response to IL-7 and IL-15. ETC cells expanded with four different protocols (regular, adding IL-21 alone, adding Pano alone, or IL-21+Pano) were labeled with CFSE and cultured with IL-2, IL-7 or IL-15 for 2 days. […] Adding Panobinostat alone to REP increased cell proliferation in response to IL-15 but not to IL-2. […] Since IL-2 and IL-15 share CD132 (γC) and CD122 receptor subunits, CD132 and CD122 levels were assessed on the surface of these cells.

STAT1 = assay: Western blot of pSTAT1; type: cell-based, human; conditions: naïve CD8+ T cells, anti-CD3/CD28 beads, 30 minutes after activation
Procedure: as §4, §1

CD28 promoter = assay: Chromatin immunoprecipitation (ChIP) on the CD28 promoter; type: cell-based, human
Procedure: Chromatin immunoprecipitation (ChIP): ChIP was performed using a ChIP Assay Kit according to the manufacturer's instructions (Millipore). Quantitative real-time PCR was performed with primers: CD28 promoter proximal STAT sites: forward […] (SEQ ID NO:10), reverse […] (SEQ ID NO: 11); distal STAT sites: forward […] (SEQ ID NO: 12), reverse […] (SEQ ID NO: 13); Rabbit IgG was used as a negative control.

M27-specific CTLs = assay: CD28 expression in M27-specific CTLs generated with IL-21; type: cell-based, human
Source text: (§6) IL-21 upregulates CD28 expression on activated human naïve CD8^+ T cells: CD28 is a pivotal costimulatory molecule for naïve T cell activation and memory T cell function. […] To investigate the molecular mechanisms of IL-21-induced CD28 expression, melanoma antigen recognized by T cells (MART1, M27)-specific CTLs were generated in the absence or presence of IL-21 as previously described (Li et al., 2005). […] To further corroborate the findings, sort-purified naïve human CD8^+ T cells (CD45RA^+CCR7^+) from healthy donors were activated with anti-CD3/CD28 beads in the absence or presence of IL-21 and surface CD28 expression was detected by flow cytometry.
as §3
Quantitative real-dime PCR: Total RNA was prepared using Qiagen RNA purification kit. cDNA. was made using Superscript reverse transcriptase and oligo(dT) primers (Life Technology), and gene expression was detected with a Bio-Rad iCycler Optical System using iQ SYBR green real-time PCR kit (Bio-Rad Laboratories, Inc.). The data were normalized to the reference gene RPL13A. RPL13A primer was purchased from Qiagen. Other primer pairs used were: CD28 forward: […] (SEQ ID NO:2), reverse: […] (SEQ ID NO: 3); CD62L forward: […] […]

human CD8+ T cells = assay: CD28 expression in polyclonally activated human CD8+ T cells; type: cell-based
Source text: as §6, §4, §3
Quantitative real-dime PCR: Total RNA was prepared using Qiagen RNA purification kit. cDNA. was made using Superscript reverse transcriptase and oligo(dT) primers (Life Technology), and gene expression was detected with a Bio-Rad iCycler Optical System using iQ SYBR green real-time PCR kit (Bio-Rad Laboratories, Inc.). The data were normalized to the reference gene RPL13A. RPL13A primer was purchased from Qiagen. Other primer pairs used were: CD28 forward: […] (SEQ ID NO:2), reverse: […] (SEQ ID NO: 3); CD62L forward: […] (SEQ ID NO: 4), reverse: […] (SEQ ID NO: 5); Additional primers included lymphoid enhancer-binding factor 1 (LEFI) forward: […] (SEQ ID NO: 6), reverse: […] (SEQ ID NO: 7); transcription factor 1 (TCF1) forward: […] (SEQ ID NO: 8), reverse: CCTCGACCGCCTCTTCTTC (SEQ ID NO: 9).
Human shRNA Knockdown: Total CD8^+ T cells were isolated and transfected with 5 μg negative control, STAT1 shRNA, or STAT3 shRNA (Dharmacon) using Amaxa human T cell Nucleofector Kit according to the manufacturer's instructions (Lonza). Transfected cells were rested for 1-2 days and live GFP^+ cells were sort-purified for immunoblot analysis or were stimulated for 7 days as previously described before further analysis.

Cc1[nH]c2ccccc2c1CCNCc1ccc(/C=C/C(=O)NO)cc1 [Panobinostat]
cytotoxicity ([1]; screen of HDACi): minimal cytotoxicity
Panobinostat dose that increased AcH3 level [2]: ≥ 0.5 nM

IL-21: Human Interleukin 21, protein cytokine of 162 amino acids (SEQ ID NO:1)
CD132 (γ chain) surface expression (CD132 (γC)): upregulate; also recorded: significantly increased
STAT5 phosphorylation (STAT5): weak
yield of cell expansion ([3]; mini-REP): dramatically increased
expansion yield / expansion fold ([3]; regular REP): similar
IFNγ and granzyme B expression [4]: augmented
CD28 expression [5]: slightly increased; also recorded: not observed
tumor cell killing (target tumor cells): enhanced
IL-21-induced STAT3 phosphorylation levels, naïve compared with effector CD8+ T-cells (STAT3): comparable
STAT3 phosphorylation (STAT3; effector CD8+ T cells): induced STAT3 phosphorylation
STAT3 phosphorylation (STAT3; naïve CD8+ T cells, anti-CD3/CD28 beads, 30 minutes after activation): strong
proliferation in response to IL-2 (expanded CTLs): enhanced
proliferation in response to IL-15 (expanded CTLs): enhanced
STAT1 phosphorylation (STAT1): strong
enrichment of STAT3 at proximal and distal CD28 promoter regions (CD28 promoter; anti-CD3/CD28 and IL-21 relative to anti-CD3/CD28 alone): 2-3 fold
CD28 mRNA level (M27-specific CTLs): greatly augmented
CD28 expression (M27-specific CTLs; compared with cells generated in the absence of IL-21): significantly higher
IL-21-mediated enhancement of CD28 expression (human CD8+ T cells; CD8+ T cells from Job's syndrome patients): completely abrogated
IL-21-induced CD28 protein and mRNA upregulation diminished (human CD8+ T cells; STAT1 shRNA-transfected CD8+ T cells): not
IL-21-induced CD28 protein and mRNA upregulation (human CD8+ T cells; STAT3 shRNA-transfected CD8+ T cells): diminished
CD28 expression (human CD8+ T cells; activated TEMRA CD8+ T cells): minimally upregulated
CD28 mRNA level (human CD8+ T cells; naïve CD8+ T cells, anti-CD3/CD28): greatly augmented
CD28 surface level expression (human CD8+ T cells; naïve CD8+ T cells, anti-CD3/CD28 beads): significantly increased; also recorded: upregulates
expression of CD28 at protein and mRNA levels (human CD8+ T cells; total CD8+ T cells from healthy donors): increased

O=C(CCCCCCC(=O)Nc1ccccc1)NO [SAHA, Suberoylanilide Hydroxamic Acid]
CD28 expression [5]: upregulated
cell death in REP culture [1]: caused dramatic cell death
viable cells at the end of REP [1]: few viable cells
AcH3 level on the CD28 promoter (CD28 promoter; M27-specific effector CD8+ T cells, SAHA 24 hours): significantly increased
IL-21-induced STAT3 (pSTAT3) binding to the CD28 promoter (CD28 promoter; SAHA 24 hours, then IL-21 30 minutes): allowing IL-21-induced STAT3 to bind to the same DNA region; also recorded: increased; also recorded: allows IL-21-induced pSTAT3 to access the CD28 promoter
AcH3 level by western blot ([2]; H3 and β-actin as loading controls): dose-dependent increase; also recorded: increases H3 acetylation in a dose-dependent manner
SAHA concentration that augmented AcH3 level ([2]; effector CD8+ T cells): ≥ 1 µM
SAHA concentration that could augment AcH3 levels ([2]; titration study, effector CD8+ T cells): ≥ 1 µM
